# Experimental data: publication PMC13379236 (Cell reports, 2026)
# Assays:
# ZYG11B-EloBC [1] = molecular target: T1, ZYG11B-EloBC (Homo sapiens, UniProt Q9C0D3); experiment: MBP pull-down with substrate receptor module ZYG11B-EloBC; assay type: binding; conditions: MBP fusion on amylose resin, prey 1:1, 1 h, 4°C; SDS-PAGE, Coomassie
# Method: Peptides corresponding to […] and […] were appended to the N terminus of maltose-binding protein (MBP) and cloned into pET-28a containing an N-terminal His6 tag followed by a TEV protease cleavage site. Fusion proteins were purified by Ni-NTA chromatography, digested with TEV protease, and passed over Ni-NTA resin again to remove TEV and the cleaved His6 tag. Final purification was performed by size-exclusion chromatography. The resulting proteins contained MBP fused to N-terminal Gly/N-degron overhangs. For pulldown experiments, approximately 100 μg MBP fusion protein was immobilized on 50 μL amylose resin and incubated with prey protein at a 1:1 molar ratio for 1 h at 4°C. Resin was washed three times, and bound proteins were eluted in sizing buffer supplemented with 20 mM maltose. Samples were analyzed by SDS-PAGE and Coomassie staining. Pulldown efficiency was quantified as the ratio of MBP–NLRP1 degron signal to ZYG11B signal in the same gel lane. […]
# incubation of full-length Cyclin B1 without Gly/N-degron with ZYG11B–EloBC (top). SDS–PAGE analysis of the indicated fractions from the Superose 6 column (dashed lines) confirms complex formation (bottom) C, fluorescence anisotropy binding of ZYG11B-EloBC to indicated fluorescein-labeled peptides (left) and fitted equilibrium dissociation constants (right). […]
# CRL2^ZYG11B = experiment: MBP pull-down with E3 holoenzyme CRL2^ZYG11B; assay type: binding, human; conditions: MBP fusion on amylose resin, prey 1:1, 1 h, 4°C; SDS-PAGE, Coomassie
# Method: Bacmids were generated in DH10Bac cells and transfected into Sf9 cells to produce recombinant baculovirus, which was amplified through two additional rounds. Four liters of Sf9 cells at 2 × 10 ^6 cells/mL were infected with amplified virus and harvested after 60 h. Cell pellets were resuspended in buffer B (50 mM Tris-HCl, 500 mM NaCl, 0.5 mM EDTA, 0.5 mM TCEP, and 1 mM PMSF) supplemented with protease inhibitors, lysed by sonication, and clarified by ultracentrifugation at 40,000 rpm for 1 h. The supernatant was incubated with Strep-Tactin Sepharose resin for 2 h, washed extensively with buffer B, and eluted with 20 mM HEPES, pH 7.5, 300 mM NaCl, 0.5 mM TCEP, and 10 mM D-desthiobiotin. The complex was further purified by size-exclusion chromatography in the same sizing buffer used for ZYG11B–EloBC.
# To reconstitute the pentameric CRL2–ZYG11B complex (ZBCC), purified ZYG11B–EloBC and CUL2/Rbx1 complexes were mixed at a 1:1 molar ratio and incubated on ice for 30 min. […]
# Peptides corresponding to […] and […] were appended to the N terminus of maltose-binding protein (MBP) and cloned into pET-28a containing an N-terminal His6 tag followed by a TEV protease cleavage site. […] Samples were analyzed by SDS-PAGE and Coomassie staining. Pulldown efficiency was quantified as the ratio of MBP–NLRP1 degron signal to ZYG11B signal in the same gel lane. […]
# [2] = system: CUL5/RBX2 with ZYG11B-EloBC; assay type: binding, human
# NLRP1 = conditions: treatment of cells with pan-CRL inhibitor; cited from earlier work
# Text: Human NLRP1 (NACHT, LRR, and PYD domains-containing protein 1) has recently been characterized as a substrate of CRL2 in complex with either ZYG11B or ZER1.[7] NLRP1 is an effector-triggered immunity (ETI) sensor of pathogen-encoded proteases, wherein cleavage of NLRP1 in mice and humans by specific bacterial or viral proteases results in inflammasome formation, which leads to subsequent release of pro-inflammatory cytokines such as IL-1b and IL-18 and pyroptotic cell death.[7]-[10] The mechanism by which this occurs, termed functional degradation, depends on specific recognition, ubiquitinati ...
# ZYG11B-EloBC [3] = molecular target: T1, ZYG11B-EloBC; assay type: binding
# T1 sequence (Q9C0D3 whole entry, the tested form may be a part): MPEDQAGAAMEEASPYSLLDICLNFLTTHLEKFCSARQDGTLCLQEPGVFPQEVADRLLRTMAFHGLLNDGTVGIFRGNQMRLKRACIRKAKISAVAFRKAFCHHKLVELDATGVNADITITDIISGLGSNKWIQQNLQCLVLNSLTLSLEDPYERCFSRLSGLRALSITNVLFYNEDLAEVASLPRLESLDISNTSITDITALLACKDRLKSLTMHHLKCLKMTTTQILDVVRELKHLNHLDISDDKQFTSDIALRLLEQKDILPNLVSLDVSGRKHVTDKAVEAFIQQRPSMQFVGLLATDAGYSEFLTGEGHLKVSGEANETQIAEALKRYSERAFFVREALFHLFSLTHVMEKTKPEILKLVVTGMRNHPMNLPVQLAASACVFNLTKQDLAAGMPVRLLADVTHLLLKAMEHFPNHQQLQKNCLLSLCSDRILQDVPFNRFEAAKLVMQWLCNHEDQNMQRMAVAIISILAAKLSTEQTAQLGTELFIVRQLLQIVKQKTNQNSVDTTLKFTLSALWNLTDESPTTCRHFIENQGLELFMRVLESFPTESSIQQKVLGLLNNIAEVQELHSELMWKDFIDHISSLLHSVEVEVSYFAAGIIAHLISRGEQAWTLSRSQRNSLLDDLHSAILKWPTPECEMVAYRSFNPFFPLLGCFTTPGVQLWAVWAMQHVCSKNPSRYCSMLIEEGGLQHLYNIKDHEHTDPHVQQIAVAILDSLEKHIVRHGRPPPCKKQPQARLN
# T1 sequence (Q15370 whole entry partner, the tested form may be a part): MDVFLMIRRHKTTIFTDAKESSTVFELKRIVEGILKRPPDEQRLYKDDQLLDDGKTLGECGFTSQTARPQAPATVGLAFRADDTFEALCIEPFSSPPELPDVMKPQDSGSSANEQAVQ
# T1 sequence (Q15369 17-112 partner limits assumed): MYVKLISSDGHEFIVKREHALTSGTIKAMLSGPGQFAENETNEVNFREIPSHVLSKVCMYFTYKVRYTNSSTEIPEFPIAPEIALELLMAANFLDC
Compound,interaction with ZYG11B-EloBC (ZYG11B-EloBC [1]),interaction with CRL2^ZYG11B (CRL2^ZYG11B),amount of CUL5/RBX2 retained compared to CUL2/RBX1 [2],effect on HRV-mediated activation of NLRP1 (NLRP1),co-purification / complex formation with ZYG11B-EloBC (ZYG11B-EloBC [3])
GSERRVLRQL [Degron-10],interacted,interacted,reduced compared to CUL2/RBX1,,
GSERRVLRQLPDTSGRRWRE [Degron-20],interacted,interacted,reduced compared to CUL2/RBX1,,
NS(=O)(=O)OC[C@@H]1C[C@@H](n2ccc3c(N[C@H]4CCc5ccccc54)ncnc32)C[C@@H]1O [MLN4924],,,,impairs HRV-mediated activation of NLRP1,
GSERRVLRQLPDTSG [chimera],,,,,copurified with ZYG11B-EloBC
